One assay concerns the target T1, LPA1 receptor (Mus musculus, UniProt P61793).
T1 construct: Fresh tissues from naïve mouse lungs and bleomycin treated lungs were immersed into OCT; from tissue; host or cells: lung sections (10 µm) of naïve and bleomycin-treated female C57BL/6 mice
Description: In vitro autoradiography of mouse lung sections: [18F] radioligand binding and displacement by blocking compound. The conditions noted are these: for displacement of [18F] radioligand vs total binding: 3.9 nM radioligand. On the procedure:
The naïve lung mouse tissues were collected from female C57BL/6 mice (8-10 weeks old; 18-25 grams), the samples were stored in −80° C. degree freezer until use. The bleomycin treated animals consists of female C57BL/6 mice (8-10 weeks old; 18-25 grams) were anesthetized with 5% isoflurane the day before study initiation. Bleomycin was dissolved into sterile phosphate buffered saline to a concentration of 500 μg/ml. For injection, mice were anesthetized with 5% isoflurane and using a 1 cc syringe with a 27 g needle, 100 μl of the stock bleomycin solution was injected subcutaneously (SC) into the center of each shaved region (50 μg/site). The bleomycin was administered 5 days/week, Monday through Friday, and was injected into the same region each day until Day 28. Specifically the left lobe of lung was harvested and inflated using a 1:1 OCT (which consists of a mixture 10.24% w/w polyvinyl alcohol 4.26% w/w polyethylene glycol 85.50 w/w non-reactive ingredients)/phosphate buffered saline mixture.
Fresh tissues from naïve mouse lungs and bleomycin treated lungs were immersed into OCT and chilled in 2-methylbutane for 2-5 minutes until frozen. The tissues were then wrapped in foil/ZIPLOC® bag and stored at −80° C. Tissue sections of 10 μm thickness (collected as 2 sections/slide) were cut using a cryostat and thaw-mounted on glass microscope slides, allowed to air dry for approximately 30 minutes. Blocking studies with 1-(4′-(3-methyl-4-(((l-phenylethoxy)carbonyl)amino)isoxazol-5-yl)-[1,1′-biphenyl]-4-yl)cyclopropanecarboxylic acid at 0.1 nM, 1 nM and 10 nM respectively were conducted using the following conditions. The individual slides, 4 slides per concentration, were pre-incubated in a mixture of 50 mM Hepes, […], pH=7.4 and 0.05% Tween-20 buffer solution that contains only this buffer (total binding), as well as […] 1-(4′-(3-methyl-4-(((l-phenylethoxy)carbonyl)amino)isoxazol-5-yl)-[1,1′-biphenyl]-4-yl)cyclopropanecarboxylic acid, 1 nM 1-(4′-(3-methyl-4-(((1-phenylethoxy)carbonyl)amino)isoxazol-5-yl)-[1,1′-biphenyl]-4-yl)cyclopropanecarboxylic acid and 10 nM 1-(4′-(3-methyl-4-(((1-phenylethoxy)carbonyl)amino)isoxazol-5-yl)-[1,1′-biphenyl]-4-yl)cyclopropanecarboxylic acid for a 3 hour period. These individual slides were then incubated in the buffer solution containing 3.9 nM of [^18F]-1-(4′-(4-((((3-(fluoromethyl)benzyl)oxy)carbonyl)amino)-3-methylisoxazol-5-yl)-[1,1′-biphenyl]-4-yl)cyclopropanecarboxylic acid that was formulated in 10% ethanol 90% 0.5% sodium bicarbonate. This solution was diluted with 300 ml of buffer solution to generate a stock solution. From this stock solution, 40 ml was added to each incubation chamber. One of these chambers contained only the radioligand buffer solution, which is referred to as the total binding section. An additional 40 ml was added to each incubation chamber along with the relevant concentration of blocking compound (1-(4′-(3-methyl-4-(((1-phenylethoxy)carbonyl)amino)isoxazol-5-yl)-[1,1′-biphenyl]-4-yl)cyclopropanecarboxylic acid at 0.1 nM, 1 nM, 10 nM). Then the individual slides were incubated in the buffer solution containing the [^18F]-1-(4′-(4-((((3-(fluoromethyl)benzyl)oxy)carbonyl)amino)-3-methylisoxazol-5-yl)-[1,1′-biphenyl]-4-yl)cyclopropanecarboxylic acid radioligand and blocking compound for 1.5 hours at room temperature to reach maximum binding. After 4.5 hours of total incubation, slides from each treatment group were removed from the incubation solutions and placed in an ice-cold wash buffer (50 mM Hepes, 100 mM NaCl, and 0.05% Tween-20, pH=7.4) and rinsed 4 times. Slides were then dried under a stream of cold air for approximately 1 hour. The air-dried slides were exposed by placing the slides onto an imaging plate (BAS-SR 3545S) for 15 minutes at room temperature. The imaging plate was scanned using the bioimaging analyzer (Fujifilm Fluorescent Image Analyzer, FLA-9000). The pixel size of the autoradiogram images was 100 μm. […]
Background: Displacement assays read how much labelled ligand stays bound in the presence of the test substance.

The target in a further assay is T2, LPA1 (Macaca mulatta, UniProt H9EN64).
T2 construct: from tissue; host or cells: lung of living anaesthetised rhesus monkeys (in vivo PET)
Description: PET blocking study of [11C]-BMT-136088 with BMS-986020. Type of assay: in vivo, rhesus monkeys. On the procedure:
For the blocking data reanalyzed here, each animal was scanned twice during the administration of [^11C]-BMT-136088, using a bolus plus infusion (B+I) protocol: at baseline first, then during the administration of the blocking drug, BMS-986020, also using a bolus plus infusion protocol.
In the blocking study, BMS-986020 was administered i.v. using a 10-min bolus ([…]) followed by a ˜230 min infusion (0.25 mg/kg/hr) for a total dose of 1.224±0.015 mg/kg.
Two rhesus monkeys were included in the blocking, test-retest, and saturation studies: one male, one female; age=4.8±0.8 y; weight=8.6±0.4 kg. Studies in the same animal were separated by at least 2 weeks to allow the animal to recover from anesthesia and other effects. Four rhesus monkeys (2M, 2F) were included in the dosimetry study.
Following a low-dose, CT scan used for attenuation correction and to delineate the lung regions of interest, [^11C]-BMT-136088 was injected using a computer-control pump with a bolus plus infusion protocol, with an initial 1-min bolus and a ˜119-min infusion. The volume injected during the initial bolus represented 100 min (Kbol) worth of infusion in the blocking and test-retest study, and 300 min worth of infusion in the saturation study.
Beginning at the start of each injection, a 120-minute time-of-flight list-mode acquisition on the mCT PET/CT scanner (Siemens Medical Solutions USA, Inc.) was performed. Dynamic PET scan data were reconstructed with corrections for point-spread function, attenuation, normalization, scatter, randoms, and dead time using a 3D OP-OSEM TOF algorithm. PET images were reconstructed into 33 frames, with the following frame timing: 6×30 sec; 3×1 min; 2×2 min; 22×5 min. Each frame contained 400×400×111 (x,y,z) voxels (2.04×2.04×2.0 mm).
Blood samples for PK for each blockade study session were obtained at −1, 60, 90, 120, 150, 210, 240 and 270 minutes after the start of BMS-986020 bolus plus infusion. Red cells were precipitated at 3200 rpm for 10 minutes at 10° C.; the plasma was divided into two aliquots and frozen at −80° C. until shipped for analysis. […]

T2 sequence (H9EN64 1-364): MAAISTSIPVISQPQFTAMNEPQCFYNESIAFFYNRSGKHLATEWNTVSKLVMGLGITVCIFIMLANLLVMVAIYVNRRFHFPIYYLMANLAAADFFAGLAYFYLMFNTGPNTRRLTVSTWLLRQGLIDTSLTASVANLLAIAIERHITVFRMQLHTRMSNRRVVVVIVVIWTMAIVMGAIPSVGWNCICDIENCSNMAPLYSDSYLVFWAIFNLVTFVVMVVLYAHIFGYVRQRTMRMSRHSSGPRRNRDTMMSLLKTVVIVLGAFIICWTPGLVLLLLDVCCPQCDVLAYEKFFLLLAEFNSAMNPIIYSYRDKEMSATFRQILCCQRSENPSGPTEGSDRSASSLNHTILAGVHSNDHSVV
T1 sequence (P61793 whole entry): as the sequence (H9EN64 1-364) above, with I4A, I8S, P22Q, H40Y, I61V, E193D, N194H, I269V, S331N, S335N counted along it

As for `Cc1noc(-c2ccc(-c3ccc(C4(C(=O)O)CC4)cc3)cc2)c1NC(=O)OCc1cccc(C[18F])c1` [[^18F]-1-(4′-(4-((((3-(fluoromethyl)benzyl)oxy)carbonyl)amino)-3-methylisoxazol-5-yl)-[1,1′-biphenyl]-4-yl)cyclopropanecarboxylic acid], the “localisation of radioligand binding in lung” value at LPA1 receptor (bleomycin treated mouse lung section, trichrome collagen staining, FIG. 1) is listed as “resides within positive collagen”.
With `Cc1noc(-c2ccc(-c3ccc(C4(C(=O)O)CC4)cc3)cc2)c1NC(=O)OC(C)c1ccccc1` (centres unmarked) [1-(4′-(3-methyl-4-(((1-phenylethoxy)carbonyl)amino)isoxazol-5-yl)-[1,1′-biphenyl]-4-yl)cyclopropanecarboxylic acid], on LPA1 receptor (10 nM blocking compound, naïve and bleomycin treated mouse lung sections), the “radioligand displacement (FIG. 2)” value is roughly 80%. In addition, the “displacement of [18F] radioligand vs total binding” value is recorded as 11.3+/−4.2% on LPA1 receptor (bleomycin treated mouse lung tissue sections, 0.1 nM blocking compound); 55.5+/−2.3% at LPA1 receptor (bleomycin treated mouse lung tissue sections, 1 nM blocking compound); 82.7%+/−1.4 on LPA1 receptor (bleomycin treated mouse lung tissue sections, 10 nM blocking compound); 18.2+/−7.6% at LPA1 receptor (naïve mouse lung tissue sections, 0.1 nM blocking compound); 57.3+/−2.6% at LPA1 receptor (naïve mouse lung tissue sections, 1 nM blocking compound); 72.6%+/−6.7 at LPA1 receptor (naïve mouse lung tissue sections, 10 nM blocking compound).
As to `Cc1noc(-c2ccc(-c3ccc(C4(C(=O)O)CC4)cc3)cc2)c1NC(=O)O[C@H](C)c1ccccc1` [BMS-986020], the blockade effect at LPA1 (VT by MA1, all corrections incl. lung density and blood radioactivity, BMS-986020 i.v. bolus plus infusion) is 54±11%. Also, the “occupancy of LPA1 binding” value at LPA1 (at 1.25 mg/kg) is listed as roughly 100%. Moreover, the receptor occupancy at 1.25 mg/kg at LPA1 (rhesus monkey, at 1.25 mg/kg, read-out: occupancy of LPA1 binding) was 103 ± 20%.

For the origin of these results see patent US9987381B2, “Radioligands for imaging the LPA-1 receptor” (BRISTOL-MYERS SQUIBB COMPANY, priority 2013, dated 2018).
